Results as given in BindingDB's records for patent US12281118 (Shanghai Ringene Biopharma, 2025).

Each molecule was assayed against T1, Tyrosine-protein phosphatase non-receptor type 11 (Homo sapiens, UniProt Q06124) (assay: Test of Inhibitory Activity Assay).
T1 sequence (Q06124 whole entry): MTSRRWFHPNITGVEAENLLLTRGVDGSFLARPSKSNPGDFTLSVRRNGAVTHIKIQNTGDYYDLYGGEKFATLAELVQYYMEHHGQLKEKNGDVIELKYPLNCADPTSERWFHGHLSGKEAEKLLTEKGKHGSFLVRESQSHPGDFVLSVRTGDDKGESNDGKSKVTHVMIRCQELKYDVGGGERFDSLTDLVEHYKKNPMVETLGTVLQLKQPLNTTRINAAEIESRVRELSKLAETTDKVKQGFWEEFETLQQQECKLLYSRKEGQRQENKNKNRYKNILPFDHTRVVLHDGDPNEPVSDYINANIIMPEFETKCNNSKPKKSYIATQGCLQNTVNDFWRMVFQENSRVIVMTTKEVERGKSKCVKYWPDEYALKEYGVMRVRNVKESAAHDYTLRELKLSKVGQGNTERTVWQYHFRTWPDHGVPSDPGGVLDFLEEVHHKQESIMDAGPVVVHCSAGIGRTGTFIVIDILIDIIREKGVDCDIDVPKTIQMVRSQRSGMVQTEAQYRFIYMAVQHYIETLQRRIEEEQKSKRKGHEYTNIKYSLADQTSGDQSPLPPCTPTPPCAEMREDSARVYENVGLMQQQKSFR
Description: (1) Preparing 1×Reaction Buffer according to the BPS Biosciences' Instructions for Use of the SHP2 enzyme. (2) Preparing a compound concentration gradient: Test the test compound at 10 μM under 3× dilution for 10 concentrations, diluting to a 100% dimethyl sulfoxide solution at a 100× final concentration in a 384-well plate, and diluting the compound with Precision 4× for 10 concentrations. […] (3) Preparing the activation peptide solution at a 5× final concentration with the 1×Reaction Buffer, adding 5 μL of the solution to a reaction plate, respectively, and centrifuging at 1000 rpm for 1 min. (4) Preparing an enzyme solution at a 2.5× final concentration with the 1×Reaction Buffer, adding 10 μL of the solution to the reaction plate, respectively, centrifuging at 1000 rpm for 1 min, and incubating at room temperature for 60 min. […] (6) Adding 30 μL of stop test solution to stop the reaction, centrifuging at 1000 rpm for […], and mixing well by shaking. (7) Reading the conversion rate with a Caliper EZ Reader. (7) Data analysis:%Inhibition=Conversion%_max-Conversion%_sampleConversion%_max-Conversion%_min×100Wherein: Conversion %/_sample is the reading of a conversion rate of a sample; Conversion %_min: mean of negative control wells, which represents the reading of a conversion rate in absence of enzyme activity wells; Conversion %_max: mean of a ratio of positive control wells, which represents the reading of a conversion rate in absence of compound inhibition wells.

Structure (SMILES)	IC50 [nM]
Cc1nc(N2CCC3(CC2)Cc2ccccc2[C@H]3N)n2ccnc2c1Sc1cccnc1C(F)(F)F [US12281118, Example 2]	6.3
Cc1nc(N2CCC(C)(N)CC2)n2ncnc2c1-c1cccc(Cl)c1Cl [US12281118, Example 21]	> 1000
Cc1nc(N2CCC(C)(N)CC2)n2cnnc2c1-c1cccc(Cl)c1Cl [US12281118, Example 22]	> 1000
Cc1cc(N2CCC(C)(N)CC2)n2cnnc2c1-c1cccc(Cl)c1Cl [US12281118, Example 23]	> 1000
Cc1nc(N2CCC(C)(N)CC2)n2ccnc2c1Sc1cccc(Cl)c1Cl [US12281118, Example 25]	65
CC1(N)CCN(c2nc(CF)c(-c3cccc(Cl)c3Cl)c3nccn23)CC1 [US12281118, Example 28]	53
